This test concerns depression animal model. The test can be described thus: Forced swimming test (depression animal model). The settings on record: P<0.05. Type of test: in vivo, Sprague Dawley rats.

Protocol: Four Sprague Dawley rats (140-180 g, Dae Han BioLink Co., Korea) each box were placed under constant condition (temperature: 25±1° C., relative humidity: 60±10%), and fed with unlimited water and food for 1 week. Fifty rats were selected for experiment among the rats by excluding ones that were undeveloped, show less motion or abnormal behavior in forced swimming test.
As a standard method for behavioral despair test, a forced swimming test (FST) was used in this experiment, which is known as principal test for verify anti-depression efficacy.
A rat was placed for 15 minutes in a transparent cylindrical water tank with 40 cm of height and 18 cm of diameter, which was filled with 15 cm deep water. […] The immobilization state typically refers to a state that a rat pushes only its head above the surface and was in a minimum motion for keeping itself afloat. After forced swimming test, the rat was dried at 37° C. for 30 minutes and returned to the box.
After 24 hours, the second forced swimming was performed for 5 minutes under the same condition with the first forced swimming test, and total immobilization time was measured. […] The immobilization time was measured by recording total process of the forced swimming and comparing between the control group and the experiment group. Values measured by 3 different analyzers were averaged and used as an analysis data. […]

Regarding `CN(C)CCCN1c2ccccc2CCc2ccccc21` [imipramine], the “Average immobilization time, 7-day repeated administration” value (oral one time a day for 7 days, FIG. 23) was “significantly decreased”. The “Average immobilization time, one time urgent administration” value (silk peptide 1 g/kg oral, imipramine 20 mg/kg, 1 hour before second forced swimming, FIG. 22) is recorded as “significantly decreased”.

These data come from patent publication US10010574B2, “Silk peptide for improving neuroprotective and neurofunctional effects and a method of its preparation” (BRAINGUARD CO., LTD., priority 2004, dated 2018).
